Assay results reported in paper PMC12040169 (PLOS Biology, 2025).

assay: in vitro; details: human, hela cells, % viability

Structure (SMILES)	viability at 28.5 h, 10 µM
COc1ccccc1C(=O)NC1CN2CCC1CC2 (stereo not shown) [CBK018475C]	75.5%
O=C(NCc1ccc(Cl)cc1)c1cn(-c2ccccc2)c2ccc(CN3CCOCC3)cc2c1=O [CBK018481]	98.7%
CSC(=S)n1c(C)nc2ccccc21 [CBK018539]	92.3%
CC1(C)CN(c2ccc(Cl)cn2)C1=O [CBK018550]	93.6%
COc1ccnc(Sc2ccc(Cl)cc2)c1C#N [CBK018571]	92.2%
CC(=O)c1c2c(c(N3CCN(C#N)CC3)[nH]c1=S)CC(C)(C)OC2 [CBK018622]	86.3%
COC(=O)NC(=S)Nc1ccc2c(c1)OCCO2 [CBK018644]	79%
S=c1ccc(N/N=C/C2CC=CCC2)n[nH]1 (stereo not shown) [CBK018655]	95.3%
Cc1cc(S(=O)(=O)CC#N)c(C)cc1Cl [CBK018672]	89.2%
CC1OCN(c2ccc(C(C)(C)C)cc2)Cn2c1nc1ccccc12 (stereo not shown) [CBK018706]	88%
CCN(CC)S(=O)(=O)c1c(C)[nH]c(=O)[nH]c1=O [CBK018721]	94.1%
Cc1c(-c2ccnc(N)n2)nnn1-c1ccc(Cl)cc1Cl [CBK018733]	65.5%
O=[N+]([O-])c1ccc(N/N=C/c2cnn(-c3ccccc3)c2)cc1 [CBK018746]	94%
N#C/C(=N/Nc1ccc(Br)cc1)C1=NC(=O)CS1 [CBK018747]	96%
CC(C)(C)SCCNc1nc(Cl)nc(N2CCSCC2)n1 [CBK018768]	80.2%
CC(C)c1cc(C(C)C)c(S(=O)(=O)n2cnc3c2c(=O)[nH]c(=O)n3C)c(C(C)C)c1 [CBK018772]	107%
CCc1nnc(NC(=O)COC(=O)CSc2nc(C)cc(C)n2)s1 [CBK018792]	90.9%
S=C(Nc1ccccc1Cl)Nc1ccccc1-n1cccc1 [CBK018806]	81.6%
CC(C)(C)C1CCC(=NNC(=O)c2ccc(CN3CCOCC3)cc2)CC1 (stereo not shown) [CBK018812]	97.9%
CNCS(=O)(=O)C(F)(F)S(=O)(=O)N(C)C [CBK018820]	89.7%
O=c1nc(NN=C2CCCCC2)cn[nH]1 [CBK018838]	90.8%
CCCc1nnc(C(=O)NC(=O)NCCCN(C)C)s1 [CBK018853]	84.3%
COc1ccc(C2SCCCS2)cc1C(C)(C)C [CBK018886]	105%
COc1ccc(/N=C(/Nc2cccc(C(F)(F)F)c2)SC)cc1 [CBK018896I]	98.4%

Structure (SMILES)	viability at 28.5 h, 10 µM
O=C(Nc1cccc(C(F)(F)F)c1)c1cnsn1 [CBK018923]	88.9%
O=C(O)CSc1nnc2ccc(C(F)(F)F)cn12 [CBK018930]	81.3%
CC1=NN(C(=O)NS(=O)(=O)c2ccccc2Cl)C(C)(C)C1 [CBK018947]	120%
COc1cc(Cl)nnc1Cl [CBK018956]	108%
CC1(c2ccc(Br)cc2)NC(=O)CS1 (stereo not shown) [CBK018962]	92.2%
O=C(NC(S(=O)O)C(F)(F)F)OCc1ccccc1 (stereo not shown) [CBK018979]	87%
C1CN2CCC1/C(=N\Nc1nnn[nH]1)C2 [CBK019005C]	93.8%
CN(C)c1nc2n(c(=O)n1)CCS2 [CBK019025]	92.3%
CC(=O)Nc1ccc(-c2nc[nH]c2Br)cc1 [CBK019063]	88%
COC(=O)c1ccc(SCc2nc(N3CCOCC3)c3c(c2C#N)CC(C)(C)OC3)o1 [CBK019077]	114%
FC(F)(F)c1csc(Nc2ccc(Cl)c(Cl)c2)n1 [CBK019093]	85.6%
CC(C)(C)NCCN1CCn2c1nc1ccccc12 [CBK019113]	82%
CC1CCCC(C)N1c1nn(C)c(=O)[nH]1 (stereo not shown) [CBK019114]	100%
Cc1ccc(C)n1C1CC(C)(C)NC(C)(C)C1 [CBK019116]	91.1%
COc1ccc2sc(Br)c(C(=O)O)c2c1 [CBK019180]	103%
COC(=O)CNC(c1ccccc1)c1cc(Br)ccc1N (stereo not shown) [CBK019222]	96.8%
Cc1cc(=O)[nH]c(SCC(=O)O)c1C#N [CBK019224]	116%
Cc1cc(Oc2ccc(Cl)cc2Cl)nc(OCC#N)n1 [CBK019232]	96.9%
O=S1(=O)CCC(SCc2ccccc2)C1 (stereo not shown) [CBK019237]	89.1%
CN(C)c1ccc(/C=N/N=C2\NC(=O)CS2)cc1 [CBK019273]	60.6%
O=C(CN1CCOCC1)c1ccc(O)o1 [CBK019286]	95.4%
Cc1ccc(C(=O)C2CCN(S(=O)(=O)c3ccc(Cl)c(Cl)c3)CC2)cc1 [CBK019294]	106%
CCCCCCC1N=NC(c2ccc(F)cc2)=CN1O (stereo not shown) [CBK019298]	94.8%
O=S1(=O)N=C(c2cccs2)C=C(C(F)(F)F)N1 [CBK019309]	106%

same assay, conditions: human, hela cells, % viability, bulk resorufin, single well

Structure (SMILES)	viability at 28.5 h, 10 µM
O=C1NC(=O)C(=Cc2ccc([N+](=O)[O-])o2)C(=O)N1 [CBK017848]	106%
